Source: article PMC6792352, “Limited Chemical Structural Diversity Found to Modulate Thyroid Hormone Receptor in the Tox21 Chemical Library” (Environmental Health Perspectives, 2019)
Counter-ions that a name gives are not always drawn.

Experiment: in vitro
Settings: rat, gh3-tre-luc cells

Row | Structure (SMILES) | CC50 at 24 h (AC50 (uM) modified / 1000) [µM] | also measured
1 | NC(=O)Nc1nc2ccccc2[nH]1 [2-Benzimidazolylurea] | > 90 | –
2 | CC(=O)CCc1ccc(O)cc1 [4-(4-Hydroxyphenyl)butan-2-one] | > 90 | –
3 | COC(=O)C1CC(=O)C(C(=O)OC)CC1=O (stereo not drawn) [Dimethyl succinylsuccinate] | > 5 | –
4 | CC1=C2[C@@H]([C@H](C)CC[C@H]2/C=C(\C)C(=O)O)[C@H](O)C1 [Hydroxyvalerenic acid] | > 90 | –
5 | O=S(=O)(O)C(F)(F)C(F)(F)C(F)(F)C(F)(F)C(F)(F)C(F)(F)C(F)(F)C(F)(F)F [Potassium perfluorooctanesulfonate] | – | CC50 at 24 h (AC50 (uM) modified / 1000, Tox21_110001=Tox21_300544, viability, 1 nM T3 present, 24 h): 49.4 µM
6 | C/C(=C(\CCO)SS/C(CCO)=C(/C)N(C=O)Cc1cnc(C)nc1N)N(C=O)Cc1cnc(C)nc1N [Thiamine disulfide] | > 50 | –
7 | CN(C)[C@@H]1C(O)=C(C(N)=O)C(=O)[C@@]2(O)C(O)=C3C(=O)c4c(O)ccc(Cl)c4[C@@H](O)[C@H]3C[C@@H]12 [Demeclocycline hydrochloride] | > 50 | –
8 | Nc1ncnc(Nc2ccc(Cl)cc2)n1 [Chlorazanil] | > 50 | –
9 | CCCCCCCCOC(C)=O [Octyl acetate] | > 90 | –
10 | Cc1cc(S(=O)(=O)O)ccc1N=Nc1c(O)ccc2ccccc12 [C.I. Acid Orange 8, monosodium salt] | 19.3 | –
11 | CNC(=O)ON=CC(C)(C)[S+](C)[O-] (stereo not drawn) [Aldicarb sulfoxide] | > 90 | –
12 | CCCc1nc(C)c2c(=O)[nH]c(-c3cc(S(=O)(=O)N4CCN(CC)CC4)ccc3OCC)nn12 [Vardenafil citrate] | > 50 | –
13 | Nc1cccc(O)c1 [3-Aminophenol] | > 90 | –
14 | O=C(O)CCC(=O)Nc1ccc(S(=O)(=O)Nc2nccs2)cc1 [Succinylsulfathiazole] | > 20 | –
15 | CCC(C)=NO [2-Butanone oxime] | > 90 | –
16 | CCCCC(CC)COP(=O)(Oc1ccccc1)Oc1ccccc1 (stereo not drawn) [2-Ethylhexyl diphenyl phosphate] | – | CC50 at 24 h (AC50 (uM) modified / 1000, Tox21_110001=Tox21_303313, viability, 1 nM T3 present, 24 h): > 90 µM
17 | Cc1cn([C@H]2C[C@H](O)[C@@H](CO)O2)c(=O)[nH]c1=O [Thymidine] | > 50 | –
18 | O=Cc1c(Cl)cccc1Cl [2,6-Dichlorobenzaldehyde] | > 90 | –
19 | O=C(NNCNNC(=O)c1ccncc1)c1ccncc1 [Metazide] | > 50 | –
20 | CC1COc2c(N3CCN(C)CC3)c(F)cc3c(=O)c(C(=O)O)cn1c23 (stereo not drawn) [Ofloxacin] | > 50 | –
21 | CC1=CC(=O)CC(C)(C)C1=O [2,6,6-Trimethyl-2-cyclohexene-1,4-dione] | > 90 | –
22 | CCC(C)(C)C1CCCCC1OC(C)=O (stereo not drawn) [2-(2-Methylbutan-2-yl)cyclohexyl acetate] | > 90 | –
23 | CC(CCO)CC(C)(C)C (stereo not drawn) [3,5,5-Trimethyl-1-hexanol] | > 90 | –
24 | CC(C)C[C@H](CN)CC(=O)O [Pregabalin] | – | CC50 at 24 h (AC50 (uM) modified / 1000, Tox21_110001=Tox21_111475, viability, 1 nM T3 present, 24 h): > 50 µM
25 | CN=C(N)NC(=O)Nc1c(C)cccc1C [Lidamidine] | > 50 | –
26 | CC(C)NCC(O)c1ccc([N+](=O)[O-])cc1 (stereo not drawn) [Nifenalol] | > 50 | –

Row | Structure (SMILES) | CC50 at 24 h (AC50 (uM) modified / 1000) [µM] | also measured
27 | CN(C)c1ccc(C(c2ccccc2)c2ccc(N(C)C)cc2)cc1 [Leucomalachite green] | – | CC50 at 24 h (AC50 (uM) modified / 1000, Tox21_110001=Tox21_302103, viability, 1 nM T3 present, 24 h): > 90 µM
28 | CSCCCN=C=S [3-(Methylthio)propyl isothiocyanate] | > 90 | –
29 | CNC(=S)NC [N,N'-Dimethylthiourea] | > 90 | –
30 | Oc1cccc(Cl)c1Cl [2,3-Dichlorophenol] | – | CC50 at 24 h (AC50 (uM) modified / 1000, Tox21_110001=Tox21_200909, viability, 1 nM T3 present, 24 h): > 90 µM
31 | N=C(N/N=C/c1ccc(Cl)cc1)N/N=C/c1ccc(Cl)cc1 [Robenidine] | 46.1 | –
32 | C[N+](C)=CCl [N-(Chloromethylidene)-N-methylmethanaminium chloride] | > 90 | –
33 | O=S(=O)(O)c1cc(O)c2c(/N=N/c3ccc(Nc4ccccc4)c4c(S(=O)(=O)O)cccc34)cc(S(=O)(=O)O)cc2c1 [Anazolene sodium] | 22.8 | –
34 | C#CC(C)(C)NC(=O)c1cc(Cl)cc(Cl)c1 [Propyzamide] | > 90 | –
35 | CC1NCCOC1c1ccccc1 (stereo not drawn) [Phenmetrazine hydrochloride] | – | CC50 at 24 h (AC50 (uM) modified / 1000, Tox21_110001=Tox21_112166, viability, 1 nM T3 present, 24 h): > 50 µM
36 | Cc1nnc(C(=O)NC(C)(C)c2nc(C(=O)NCc3ccc(F)cc3)c(O)c(=O)n2C)o1 [Raltegravir] | > 50 | –
37 | CCCCNP(N)(N)=S [N-Butylphosphorothioic triamide] | – | CC50 at 24 h (AC50 (uM) modified / 1000, Tox21_110001=Tox21_302015, viability, 1 nM T3 present, 24 h): > 90 µM
38 | CC(C)(O)c1cnn2c(-c3ccc(F)c(-c4c(F)cccc4C#N)c3)cnc2n1 [PharmaGSID_47330] | > 90 | –
39 | COc1cc(/C=C2\CCC/C(=C\c3ccc(O)c(OC)c3)C2=O)ccc1O [Cyclovalone] | 7.98 | –
40 | OC(C#CCN1CCCC1)(c1ccccc1)c1ccccc1 [Butinoline] | 35.3 | –
41 | COC(=O)c1cc(Oc2ccc(Cl)cc2Cl)ccc1[N+](=O)[O-] [Bifenox] | > 90 | –
42 | CCN(CC)CCNC(=O)COc1ccc(Cl)cc1 [Clofexamide] | > 50 | –
43 | COc1ccc(C=O)cc1O [3-Hydroxy-4-methoxy-benzaldehyde] | – | CC50 at 24 h (AC50 (uM) modified / 1000, Tox21_110001=Tox21_202858, viability, 1 nM T3 present, 24 h): > 90 µM
44 | Cn1cc[n+](CCO)c1 [1-(2-Hydroxyethyl)-3-methylimidazolium chloride] | > 90 | –
45 | SC1CCCCC1 [Cyclohexanethiol] | > 100 | –
46 | O=C(Nc1ccc(Cl)cc1)Nc1ccc(Cl)c(C(F)(F)F)c1 [Cloflucarban] | 6.22 | –
47 | c1ccc2cnccc2c1 [Isoquinoline] | > 90 | –
48 | CCCCCNC(=N)N/N=C/c1c[nH]c2ccc(OC)cc12 [Tegaserod] | > 50 | –
49 | c1cc2c3c(cccc3c1)CC2 [Acenaphthene] | > 90 | –
50 | NNc1nc(-c2ccc([N+](=O)[O-])cc2)cs1 [2-Hydrazino-4-(4-nitrophenyl)thiazole] | 58.8 | –
51 | NC(=O)C1(N2CCCCC2)CCN(CCCC(=O)c2ccc(F)cc2)CC1 [Pipamperone dihydrochloride] | > 50 | –
52 | N=C(N)c1ccc(OCCCOc2ccc(C(=N)N)cc2Br)c(Br)c1 [Dibromopropamidine dihydrochloride] | 38.5 | –

Row | Structure (SMILES) | CC50 at 24 h (AC50 (uM) modified / 1000) [µM] | also measured
53 | C=CC(=O)OCCO [2-Hydroxyethyl acrylate] | – | CC50 at 24 h (AC50 (uM) modified / 1000, Tox21_110001=Tox21_201430, viability, 1 nM T3 present, 24 h): > 90 µM
54 | O=C1NC(=O)[C@@]2(CCOc3ccc(F)cc32)N1 [Sorbinil] | > 50 | –
55 | CN1C[C@@H]2c3ccccc3Oc3ccc(Cl)cc3[C@H]2C1 (racemic) [Asenapine] | 33.1 | –
56 | C[N+](C)(C)Cc1ccccc1 [Benzyltrimethylammonium chloride] | > 90 | –
57 | COc1cc2c(cc1OC)[C@@H](Cc1cc(OC)c(OC)c(OC)c1)[N+](C)(CCCOC(=O)CC/C=C/CCC(=O)OCCC[N+]1(C)CCc3cc(OC)c(OC)cc3[C@H]1Cc1cc(OC)c(OC)c(OC)c1)CC2 (stereo partly drawn) [Mivacurium chloride] | > 50 | –
58 | Nc1nc2c(ncn2CCC(CO)CO)c(=O)[nH]1 [Penciclovir] | > 50 | –
59 | CNCc1cc(F)ccc1Oc1ccc(Cl)c(Cl)c1 [CP-607366] | 77.7 | –
60 | CC(C)[N+](C)(C)CC(O)COc1cccc2ccccc12 (stereo not drawn) [Pranolium chloride] | > 50 | –
61 | O=C(O)Cc1c(Cl)ccc(Cl)c1Cl [Chlorfenac] | > 90 | –
62 | COc1cc([S+](C)[O-])ccc1-c1nc2ncccc2[nH]1 (stereo not drawn) [Sulmazole] | > 50 | –
63 | CC[C@@]1(O)C(=O)OCc2c1cc1n(c2=O)Cc2cc3c([N+](=O)[O-])cccc3nc2-1 [Rubitecan] | 1.34 | –
64 | C=Cc1ccccc1C=C [Divinylbenzene] | > 400 | –
65 | Clc1ccccc1CN1CCc2sccc2C1 [Ticlopidine] | 21.6 | –
66 | O=C[C@H](O)[C@@H](O)[C@@H](O)[C@H](O)CO [Galactose] | > 50 | –
67 | O=C(CCNNC(=O)c1ccncc1)NCc1ccccc1 [Nialamide] | > 50 | –
68 | CCCN(CC)C(CC)C(=O)Nc1c(C)cccc1C (stereo not drawn) [Etidocaine] | > 50 | –
69 | CC(C)(C)OC(=O)N1C[C@@H](F)C[C@H]1C(=O)O [1,2-Pyrrolidinedicarboxylicacid,4-fluoro-,1-(1,1-dimethylethyl)ester,(2S,4S)-] | > 90 | –
70 | ClC(Br)Br [Chlorodibromomethane] | – | CC50 at 24 h (AC50 (uM) modified / 1000, Tox21_110001=Tox21_200153, viability, 1 nM T3 present, 24 h): > 90 µM
71 | NC(=O)[C@@H]1CCCN1C(=O)[C@H](Cc1cnc[nH]1)NC(=O)[C@@H]1CCC(=O)N1 [Protirelin] | > 50 | –
72 | O=C(NC(=O)c1c(F)cccc1F)Nc1cc(Cl)c(OC(F)(F)C(F)F)c(Cl)c1 [Hexaflumuron] | > 90 | –
73 | CCCCCCCCS [1-Octanethiol] | > 90 | –
74 | Cc1cn([C@H]2C[C@H](F)[C@@H](CO)O2)c(=O)[nH]c1=O [Alovudine] | > 50 | –
75 | CC(=O)N(CC(O)CO)c1c(I)c(C(=O)NCCO)c(I)c(C(=O)NCC(O)CO)c1I (stereo not drawn) [Ioxilan] | > 50 | –
76 | Cc1cc(C)c(C(=O)P(=O)(C(=O)c2c(C)cc(C)cc2C)c2ccccc2)c(C)c1 [(Phenylphosphoryl)bis[(2,4,6-trimethylphenyl)methanone]] | > 90 | –
77 | C=CCN(C1=NCCN1)c1c(Cl)cccc1Cl [Alinidine] | > 50 | –
78 | Cc1ccc2ccccc2c1 [2-Methylnaphthalene] | – | CC50 at 24 h (AC50 (uM) modified / 1000, Tox21_110001=Tox21_200839, viability, 1 nM T3 present, 24 h): > 90 µM
